Converted amounts (≈) assume the structure as drawn. Like-named read-outs stand apart in the source and are kept apart here.
Experiments:
[1] = system: HCV replicon I389luc-ubi-neo/NS3-3'/5.1; test: Anti-HCV replicon assay (luciferase activity) in Huh-5-2 cells; format: cell-based, Hepatitis C virus; settings: Hepatitis C virus, concentration required to inhibit luciferase activity in the replicon system by 50%
Method in brief: (§1)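 Huh-5-2 cells carrying the luciferase HCV replicon, seeded 24 h, then exposed to serial compound dilutions without G418 for 72 h at 37° C, 5% CO2. Replication read as luciferase luminescence, expressed as percentage of untreated cultures; culture density measured in parallel by MTS.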

[2] = Proliferation of exponentially growing Huh-5-2 cells (MTS method); settings: human
Method in brief: as §1

[3] = CC50, concentration required to inhibit the proliferation of exponentially growing Huh-5-2 cells by 50%, Table 2

Compound	IC50 ([1]; Huh-5-2, 72 h) [µg/mL]	CC50 at 72 h [2, 3] [µg/mL]	IC50 ([1]; 72 hours, read-out: IC50) [µg/mL]	CC50 at 72 h ([2]; Huh-5-2 cells (Huh-5 cell line with persistent HCV replicon)) [µg/mL]
COCCN1C(=O)c2ccccc2C(C(=O)Nc2cccc(OC)c2)C1c1ccncc1 (stereo not shown) [C30, 2-(2-Methoxyethyl)-N-(3-methoxyphenyl)-1-oxo-3-(pyridin-4-yl)-1,2,3,4-tetrahydroisoquinoline-4-carboxamide]	36.7 (≈ 85 µM)	70.3 (≈ 163 µM)	–	–
COCCN1C(=O)c2ccccc2C(C(=O)Nc2cccc(-n3cccn3)c2)C1c1cccs1 (stereo not shown) [C172, N-(3-(1H-pyrazol-1-yl)phenyl)-2-(2-methoxyethyl)-1-oxo-3-(thiophen-2-yl)-1,2,3,4-tetrahydroisoquinoline-4-carboxamide]	0.09 (≈ 0.19 µM)	14.5 (≈ 30.6 µM)	–	–
COCCN1C(=O)c2ccccc2C(C(=O)Nc2ccn(C)n2)C1c1cccs1 (stereo not shown) [C180, 2-(2-methoxyethyl)-N-(1-methyl-1H-pyrazol-3-yl)-1-oxo-3-(thiophen-2-yl)-1,2,3,4-tetrahydroisoquinoline-4-carboxamide]	34.8 (≈ 84.8 µM)	80.8 (≈ 197 µM)	–	–
COCCN1C(=O)c2ccccc2C(C(=O)Nc2cccc(OC)c2)C1C(C)(C)C (stereo not shown) [C57, 3-tert-Butyl-2-(2-methoxyethyl)-N-(3-methoxyphenyl)-1-oxo-1,2,3,4-tetrahydroisoquinoline-4-carboxamide]	39.5 (≈ 96.1 µM)	76.2 (≈ 186 µM)	–	–
COc1cccc(NC(=O)C2c3ccccc3C(=O)N(CC(F)(F)F)C2c2cccs2)c1 (stereo not shown) [C62, N-(3-methoxyphenyl)-1-oxo-3-(thiophen-2-yl)-2-(2,2,2-trifluoroethyl)-1,2,3,4-tetrahydroisoquinoline-4-carboxamide]	8.81 (≈ 19.1 µM)	16.4 (≈ 35.5 µM)	–	–
COCCCN1C(=O)c2ccccc2C(C(=O)Nc2cccc(OC)c2)C1c1cccs1 (stereo not shown) [C13, N-(3-methoxyphenyl)-2-(3-methoxypropyl)-1-oxo-3-(thiophen-2-yl)-1,2,3,4-tetrahydroisoquinoline-4-carboxamide]	2.11 (≈ 4.68 µM)	33.3 (≈ 73.9 µM)	–	–
COCCN1C(=O)c2ccccc2C(C(=O)Nc2ccc(C)cc2)C1c1cccs1 (stereo not shown) [C86, 2-(2-methoxyethyl)-1-oxo-3-(thiophen-2-yl)-N-p-tolyl-1,2,3,4-tetrahydroisoquinoline-4-carboxamide]	0.25 (≈ 0.594 µM)	75 (≈ 178 µM)	–	–
COCCN1C(=O)c2ccccc2C(C(=O)Nc2cc(C(C)(C)C)[nH]n2)C1c1cccs1 (stereo not shown) [C185, N-(5-tert-butyl-1H-pyrazol-3-yl)-2-(2-methoxyethyl)-1-oxo-3-(thiophen-2-yl)-1,2,3,4-tetrahydroisoquinoline-4-carboxamide]	10.4 (≈ 23 µM)	19 (≈ 42 µM)	–	–
COCCN1C(=O)c2ccccc2C(C(=O)Nc2ccc3c(c2)CC(=O)N3C)C1c1cccs1 (stereo not shown) [C206, 2-(2-methoxyethyl)-N-(1-methyl-2-oxoindolin-5-yl)-1-oxo-3-(thiophen-2-yl)-1,2,3,4-tetrahydroisoquinoline-4-carboxamide]	3.72 (≈ 7.82 µM)	52.3 (≈ 110 µM)	–	–
COCCN1C(=O)c2ccccc2C(C(=O)Nc2cccc(OC)c2)C1c1nccs1 (stereo not shown) [C102, 2-(2-methoxyethyl)-N-(3-methoxyphenyl)-1-oxo-3-(thiazol-2-yl)-1,2,3,4-tetrahydroisoquinoline-4-carboxamide]	26.8 (≈ 61.3 µM)	72.8 (≈ 166 µM)	–	–
COCCN1C(=O)c2ccccc2C(C(=O)NCc2cccc3ccccc23)C1c1cccs1 (stereo not shown) [C72, 2-(2-methoxyethyl)-N-(naphthalen-1-ylmethyl)-1-oxo-3-(thiophen-2-yl)-1,2,3,4-tetrahydroisoquinoline-4-carboxamide]	35.8 (≈ 76.1 µM)	71.2 (≈ 151 µM)	–	–
COCCN1C(=O)c2ccccc2C(C(=O)Nc2cccc(Cc3ccccc3)c2)C1c1cccs1 (stereo not shown) [C89, N-(3-benzylphenyl)-2-(2-methoxyethyl)-1-oxo-3-(thiophen-2-yl)-1,2,3,4-tetrahydroisoquinoline-4-carboxamide]	0.11 (≈ 0.221 µM)	0.62 (≈ 1.25 µM)	–	–
COCCN1C(=O)c2ccccc2C(C(=O)Nc2nc3ccc(OC)cc3s2)C1c1ccc(F)cc1 (stereo not shown) [C273, 3-(4-fluorophenyl)-N-(6-methoxybenzo[d]thiazol-2-yl)-2-(2-methoxyethyl)-1-oxo-1,2,3,4-tetrahydroisoquinoline-4-carboxamide]	–	–	1.4 (≈ 2.77 µM)	14.9 (≈ 29.5 µM)
COCCN1C(=O)c2ccccc2C(C(=O)Nc2ccc3c(c2)OCCO3)C1c1cccs1 (stereo not shown) [C117, N-(2,3-dihydrobenzo[b][1,4]dioxin-6-yl)-2-(2-methoxyethyl)-1-oxo-3-(thiophen-2-yl)-1,2,3,4-tetrahydroisoquinoline-4-carboxamide]	0.36 (≈ 0.775 µM)	81.9 (≈ 176 µM)	–	–
COCCN1C(=O)c2ccccc2C(C(=O)Nc2ccc(-c3cccnc3)cc2)C1c1cccs1 (stereo not shown) [C173, 2-(2-methoxyethyl)-1-oxo-N-(4-(pyridin-3-yl)phenyl)-3-(thiophen-2-yl)-1,2,3,4-tetrahydroisoquinoline-4-carboxamide]	0.09 (≈ 0.186 µM)	9.59 (≈ 19.8 µM)	–	–
COCCN1C(=O)c2ccccc2C(C(=O)Nc2cccc(OC)c2)C1C#Cc1ccccc1 (stereo not shown) [C119, 2-(2-methoxyethyl)-N-(3-methoxyphenyl)-1-oxo-3-(phenylethynyl)-1,2,3,4-tetrahydroisoquinoline-4-carboxamide]	4.63 (≈ 10.2 µM)	94 (≈ 207 µM)	–	–
COCCN1C(=O)c2ccccc2C(C(=O)Nc2cccc(OC)c2)C1c1ccc(Cl)s1 (stereo not shown) [C135, 3-(5-chlorothiophen-2-yl)-2-(2-methoxyethyl)-N-(3-methoxyphenyl)-1-oxo-1,2,3,4-tetrahydroisoquinoline-4-carboxamide]	0.52 (≈ 1.1 µM)	56.7 (≈ 120 µM)	–	–
COCCN1C(=O)c2ccccc2C(C(=O)Nc2ccc(C#N)c(C(F)(F)F)c2)C1c1cccs1 (stereo not shown) [C221, N-(4-cyano-3-(trifluoromethyl)phenyl)-2-(2-methoxyethyl)-1-oxo-3-(thiophen-2-yl)-1,2,3,4-tetrahydroisoquinoline-4-carboxamide]	0.36 (≈ 0.721 µM)	3.52 (≈ 7.05 µM)	–	–
COCCN1C(=O)c2ccccc2C(C(=O)Nc2cccc(C(F)(F)F)c2)C1c1cccs1 (stereo not shown) [C110, 2-(2-methoxyethyl)-1-oxo-3-(thiophen-2-yl)-N-(3-(trifluoromethyl)phenyl)-1,2,3,4-tetrahydroisoquinoline-4 carboxamide]	1.45 (≈ 3.06 µM)	79.3 (≈ 167 µM)	–	–
COCCN1C(=O)c2ccccc2C(C(=O)Nc2cc(C(=O)OC)n(C)c2)C1c1cccs1 (stereo not shown) [C209, methyl 4-(2-(2-methoxyethyl)-1-oxo-3-(thiophen-2-yl)-1,2,3,4-tetrahydroisoquinoline-4-carboxamido)-1-methyl-1H-pyrrole-2-carboxylate]	0.11 (≈ 0.235 µM)	57.8 (≈ 124 µM)	–	–
COCCN1C(=O)c2ccccc2C(C(=O)NCCc2cn(C)c3ccccc23)C1c1cccs1 (stereo not shown) [C44, 2-(2-Methoxyethyl)-N-(2-(1-methyl-1H-indol-3-yl)ethyl)-1-oxo-3-(thiophen-2-yl)-1,2,3,4-tetrahydroisoquinoline-4-carboxamide]	4.17 (≈ 8.55 µM)	28.4 (≈ 58.2 µM)	–	–
COCCN1C(=O)c2ccccc2C(C(=O)Nc2ccc(Cn3cncn3)cc2)C1c1cccs1 (stereo not shown) [C217, N-(4-((1H-1,2,4-triazol-1-yl)methyl)phenyl)-2-(2-methoxyethyl)-1-oxo-3-(thiophen-2-yl)-1,2,3,4-tetrahydroisoquinoline-4-carboxamide]	0.76 (≈ 1.56 µM)	83.7 (≈ 172 µM)	–	–
COCCN1C(=O)c2ccccc2C(C(=O)Nc2ccc3c(c2)COC3)C1c1cccs1 (stereo not shown) [C190, N-(1,3-dihydroisobenzofuran-5-yl)-2-(2-methoxyethyl)-1-oxo-3-(thiophen-2-yl)-1,2,3,4-tetrahydroisoquinoline-4-carboxamide]	0.14 (≈ 0.312 µM)	75.9 (≈ 169 µM)	–	–
